Data from US5886026A, “Anti-angiogenic compositions and methods of use” (priority 1994, dated 1999).

Legend:
collagenase = experiment: IL-1 induced collagenase expression in chondrocytes (Northern blot); type: cell-based, bovine; details: 10^-6 M
Method: C-fos is an oncogene transcription factor shown to be involved and required for the induction of genes involved in cell proliferation and collagenase expression. […] When IL-1 is administered to chondrocytes in vitro there is a transient increase in fos mRNA levels which peak 30-60 minutes later, while collagenase mRNA is detected 9 hours later and continues to increase up to 12 hours (data not shown) after IL-1 stimulation. The fos and collagenase mRNA can be detected using the respective cDNA probes and analyzed by Northern blot analysis. This allows the determination of agents capable of inhibiting collagenase production and an approximation of the step in the collagenase synthetic pathway that is affected by the treatment.
The cells were then incubated for a further 16 hours. Total RNA from bovine articular chondrocytes was isolated by the acidified guanidine isothiocyanate method and the collagenase mRNA determined by Northern blot analysis. The RNA samples were prepared as described above using ^32 P-labeled rat collagenase cDNA.

neutrophils [1] = experiment: Neutrophil viability (LDH release); details: 46 μM, one hour, 37° C.
Method: (§3) Neutrophils were prepared from freshly collected human citrated whole blood. Briefly, 400 ml of blood were mixed with 80 ml of 4% dextran T500 (Pharmacia LKB, Biotechnology AB Uppsala, Sweden) in HBSS and allowed to settle for 1 h. Plasma was collected continuously and 5 ml applied to 5 ml of Ficoll Paque (Pharmacia) in 15 ml polypropylene tubes (Coming, N.Y.). Following centrifugation at 500×g for 30 min, the neutrophil pellets were washed free of erythrocytes by 20 s of hypotonic shock. Neutrophils were resuspended in HBSS, kept on ice and used for experiments within 3 h. Neutrophil viability and purity was always greater than 90%.
(§4) Cells were incubated for 20 minutes at 33° C. then for 10 minutes at 37° C. before addition to crystals or zymosan.

synoviocytes = experiment: 3H-Thymidine incorporation into synoviocytes; type: cell-based
Method: At these times, […] of ^3 H-thymidine was added to the cell culture and incubated for 2 hours at 37° C. The cells were placed through a cell harvester, washed through a filter, the filters were cut, and the amount of radiation contained in the filter sections determined. Once the amount of thymidine incorporated into the cells was ascertained, it was used to determine the rate of cell proliferation. This experiment was repeated three times and the data collated together.

synovial fibroblasts = experiment: Synoviocyte proliferation (Trypan blue); type: cell-based, bovine; details: 24 hours
c-fos = c-fos expression in chondrocytes (Northern blot); type: cell-based, bovine; details: 10^-6 to 10^-8 M
Method: Human recombinant TNFα was dissolved in phosphate buffered saline (PBS) with 0.1% bovine serum albumin (BSA). Total RNA from bovine articular chondrocytes was isolated by the acidified guanidine isothiocyanate method and the levels of c-fos mRNA determined by Northern blot analysis. Denatured RNA samples (12 μg) were analyzed by gel electrophoresis in a denaturing 1% agarose gel, transferred to a nylon membrane (Bio-Rad), cross-linked with an ultraviolet cross-linker (Stratagene UV stratalinker 1800), and hybridized with ^32 P-labeled rat c-fos DNA. mRNA for tubulin and total RNA were used as controls. To determine tubulin mRNA, the blots described above were subsequently stripped of DNA and re-probed with ^32 P-labeled rat P-tubulin cDNA. This experimented was conducted three times and the data collated.

neutrophils [2] = experiment: Neutrophil degranulation, lysozyme release; type: cell-based, human; details: 28 μM, CPPD
Method: (§1) All experiments that studied neutrophil responses to crystals or zymosan in the presence of paclitaxel were performed using plasma opsonized CPPD or zymosan. Opsonization of crystals or zymosan was done with 50% heparinized plasma at a concentration of 75 mg of CPPD or 12 mg of zymosan per ml of 50% plasma. Crystals or zymosan were incubated with plasma for 30 min. at 37° C. and then washed in excess HBSS.
(§2) One and a half milliliter Eppendorf tubes containing either 25 mg of CPPD or 1 mg of zymosan were preheated to 37° C. 0.5 ml of cells at 37° C. were added followed by vigorous shaking to initiate the reactions.
Briefly, Micrococcuis lysodeikticzis was suspended at 0.1 mg/ml in 65 mM potassium phosphate buffer, pH 6.2 and the absorbance at 450 nm was adjusted to 0.7 units by dilution. The crystal (or zymosan) and cell supernatant (100 μl) was added to 2.5 ml of the Micrococcus suspension and the decrease in absorbance was monitored.

neutrophils [3] = experiment: Neutrophil chemiluminescence in response to plasma opsonized CPPD or zymosan; type: cell-based, human
Method: CPPD (triclinic) crystals were prepared. The size distribution of the crystals was approximately 33% less than 10 μm, 58% between 10 and 20 μm and 9% greater than 20 μm. Crystals prepared under the above conditions are pyrogen free and crystals produced under sterile, pyrogen free conditions produced the same magnitude of neutrophil response as crystals prepared under normal, non-sterile laboratory conditions.
as §1
All chemiluminescence studies were performed at a cell concentration of 5,000,000 cells/ml in HBSS with CPPD (50 mg/ml). In all experiments 0.5 ml of cells was added to 25 mg of CPPD or 0.5 mg of zymosan in 1.5 ml capped Eppendorf tubes. 10 μl of luminol dissolved in 25% DMSO in HBSS was added to a final concentration of 1 μM and the samples were mixed to initiate neutrophil activation by the crystals or zymosan. Chemiluminescence was monitored using an LKB Luminometer (Model 1250.) at 37° C. with shaking immediately prior to measurements to resuspend the crystals or zymosan. Control tubes contained cells, drug and luminol (crystals absent).

neutrophils [4] = experiment: Neutrophil degranulation, myeloperoxidase release; type: cell-based, human; details: 28 μM, CPPD
Method: as §1, §2
Myeloperoxidase (MPO) activity was measured by the increase in absorbance at 450 nm that accompanies the oxidation of dianisidine. 7.8 mg of dianisidine was dissolved in 100 ml of 0.1M citrate buffer, pH 5.5 at […] by sonication. To a 1 ml cuvette, 0.89 mL of the dianisidine solution was added, followed by 50 μl of 1% Triton×100, 10 μl of a 0.05% hydrogen peroxide in water solution and 50 μl of crystal-cell supernatant.

in vitro = details: human, neutrophils
Method: as §3, §4

neutrophils [5] = experiment: Neutrophil superoxide anion generation; type: cell-based, human; details: 28 μM
Method: as §1
Superoxide anion concentrations were measured using the superoxide dismutase inhibitable reduction of cytochrome c assay. Briefly, 25 mg of crystals or 0.5 mg of zymosan was placed in a 1.5 ml capped Eppendorf tube and warmed to 37° C. 0.5 ml of cells at 37° C. were added together with ferricytochrome c (final concentration 1.2 mg/ml) and the cells were activated by shaking the capped tubes. […] Control tubes were set up under the same conditions with the inclusion of superoxide dismutase at 600 units per ml.

[6] = Release from ELVAX:poly-l-lactic acid microspheres, 18 hours tumbling at 37° C.; type: physicochemical
normal chondrocytes = experiment: Chondrocyte viability (Trypan blue); type: cell-based; details: 72 hours
[7] = Encapsulation of paclitaxel or baccatin in ELVAX:poly-l-lactic acid microspheres; type: physicochemical; details: for amount encapsulated: from 500 μg
Method: Microspheres are then prepared in a dissolution machine (Six-spindle dissolution tester, VanderKanp, Van Kell Industries Inc., U.S.A.) in triplicate at 200 rpm, 42° C., for 3 hours. Microspheres so prepared are washed twice in water and sized on the microscope.

CC(=O)O[C@H]1C(=O)[C@@]2(C)[C@H]([C@H](OC(=O)c3ccccc3)[C@]3(O)C[C@H](OC(=O)[C@H](O)[C@@H](NC(=O)c4ccccc4)c4ccccc4)C(C)=C1C3(C)C)[C@]1(OC(C)=O)CO[C@@H]1C[C@@H]2O [paclitaxel]
collagenase mRNA (collagenase): not detectable above background
inhibition of IL-1 induced collagenase expression (collagenase): completely inhibited
cell death (neutrophils [1]): did not cause cell death
minimal effective concentration (synoviocytes; 6 or 24 hours, read-out: lowest concentration inhibiting 3H-thymidine incorporation): ≤ 0.01 µM
inhibition of thymidine incorporation, high vs low concentrations (synoviocytes; 6 hours): no significant difference
inhibition of thymidine incorporation at low concentration (synoviocytes; 24 hours, 10^-8 M): some of the effect was lost at lower concentrations of the drug (10^-8 M), but was still substantially lower than that seen in control animals
toxicity to synovial fibroblasts (synovial fibroblasts; 10^-6 M and 10^-5 M): toxic to the synovial fibroblasts in vitro
cytotoxicity to proliferating synovial fibroblasts (synovial fibroblasts): cytotoxic to proliferating synovial fibroblasts in a concentration dependent manner
minimal effective concentration (synovial fibroblasts; Bos taurus, Fibroblast, read-out: lowest concentration inhibiting proliferation): ≤ 0.1 µM
total RNA and tubulin expression (c-fos): similarly unaffected
c-fos expression (c-fos; TNF stimulated): does not alter c-fos expression at any concentration
lysozyme release (neutrophils [2]): reduced lysozyme release
inhibition of chemiluminescence over time (neutrophils [3]; 28 μM, CPPD and zymosan): significant at all times from 3 to 16 minutes
effect on chemiluminescence of controls (neutrophils [3]; all concentrations, no stimulus): no effect on the chemiluminescence values of controls
neutrophil activation (neutrophils [3]; crystal or particulate induced): strong inhibitor
myeloperoxidase release (neutrophils [4]): significantly inhibited CPPD induced myeloperoxidase release at all times
cytotoxicity at 1 h, 46 µM (in vitro): < 5%
superoxide anion production (neutrophils [5]; CPPD): decrease in the amount of superoxide generated at all times
superoxide anion production (neutrophils [5]; zymosan): less dramatic than the inhibition of CPPD activation but was significant at all times
released from the microspheres ([6]; fluorescence): 6%
released from the microspheres ([6]; uv/vis): 10.3%
cytotoxicity to normal chondrocytes (normal chondrocytes): no cytotoxicity to normal chondrocytes
viability of normal chondrocytes (normal chondrocytes; up to 10^-5 M): does not affect the viability of normal chondrocytes
encapsulated, % by weight of the polymer ([7]; fluorescence): 1.5%
encapsulated, % of original weight ([7]; fluorescence): 15%
amount encapsulated ([7]; fluorescence): 75 µg
encapsulated, % by weight of the polymer ([7]; uv/vis): 1.2%
encapsulated, % of original weight ([7]; uv/vis): 12%
amount encapsulated ([7]; uv/vis): 58 µg
